Source: the CheMixHub ionic liquid set

Assay: xn = mol fraction of the nth substance listed
Settings: 101 kPa

CCCCCCCCCCCCCC[n+]1ccccc1.O=C([O-])C(O)c1ccccc1 + NCC(=O)NCC(=O)O + O
electrical conductivity [S/m]
Settings | 293.15 K | 298.15 K | 303.15 K
x1 = 5.26e-06, x2 = 0.0009002 | 0.00276 | 0.00323 | 0.00375
x1 = 6.01e-06, x2 = 0.001799 | 0.00408 | 0.00487 | 0.00569
x1 = 6.85e-06, x2 = 0 | 0.00248 | 0.00278 | 0.00309
x1 = 9.97e-06, x2 = 0.0009002 | 0.00403 | 0.00465 | 0.00533
x1 = 1.185e-05, x2 = 0.001799 | 0.00561 | 0.00655 | 0.0076
x1 = 1.424e-05, x2 = 0 | 0.00472 | 0.00529 | 0.00587
x1 = 1.486e-05, x2 = 0.0009002 | 0.0054 | 0.00621 | 0.0071
x1 = 1.713e-05, x2 = 0.001799 | 0.00703 | 0.0082 | 0.0094
x1 = 2.084e-05, x2 = 0.0009002 | 0.00697 | 0.008 | 0.0091
x1 = 2.126e-05, x2 = 0 | 0.00671 | 0.0076 | 0.0084
x1 = 2.26e-05, x2 = 0.001799 | 0.0085 | 0.0098 | 0.0112
x1 = 2.537e-05, x2 = 0.0009002 | 0.0082 | 0.0094 | 0.0106
x1 = 2.788e-05, x2 = 0.001799 | 0.0098 | 0.0113 | 0.0129
x1 = 2.811e-05, x2 = 0 | 0.0086 | 0.0097 | 0.0108
x1 = 3.117e-05, x2 = 0.0009002 | 0.0097 | 0.0111 | 0.0125
x1 = 3.335e-05, x2 = 0.001799 | 0.0111 | 0.0127 | 0.0145
x1 = 3.46e-05, x2 = 0 | 0.0103 | 0.0116 | 0.0129
x1 = 3.679e-05, x2 = 0.0009002 | 0.011 | 0.0125 | 0.0141
x1 = 3.864e-05, x2 = 0.001799 | 0.0122 | 0.014 | 0.0159
x1 = 4.108e-05, x2 = 0 | 0.0117 | 0.0131 | –
x1 = 4.386e-05, x2 = 0.0009001 | 0.0123 | 0.014 | –
x1 = 4.574e-05, x2 = 0.001799 | 0.0134 | 0.0153 | –
x1 = 4.811e-05, x2 = 0 | 0.0129 | 0.0144 | –
x1 = 5.11e-05, x2 = 0.0009001 | 0.0133 | 0.0151 | –
x1 = 5.321e-05, x2 = 0.001799 | 0.0145 | 0.0165 | –
x1 = 5.388e-05, x2 = 0 | 0.0137 | 0.0154 | –
x1 = 5.781e-05, x2 = 0.0009001 | 0.0143 | 0.0162 | –
x1 = 5.982e-05, x2 = 0 | 0.0145 | 0.0163 | –
x1 = 6.069e-05, x2 = 0.001799 | 0.0155 | 0.0177 | –
x1 = 6.433e-05, x2 = 0.0009001 | 0.0152 | 0.0172 | –
x1 = 6.559e-05, x2 = 0 | 0.0153 | 0.0172 | –
x1 = 6.816e-05, x2 = 0.001799 | 0.0165 | 0.0187 | –
x1 = 7.081e-05, x2 = 0 | 0.016 | 0.018 | –
x1 = 7.104e-05, x2 = 0.0009001 | 0.0161 | 0.0182 | –
x1 = 7.454e-05, x2 = 0.001799 | 0.0173 | 0.0197 | –
x1 = 7.604e-05, x2 = 0 | 0.0167 | 0.0187 | –
x1 = 7.81e-05, x2 = 0.0009001 | 0.0171 | 0.0193 | –
x1 = 8.072e-05, x2 = 0 | 0.0173 | 0.0194 | –
x1 = 8.128e-05, x2 = 0.001799 | 0.0182 | 0.0207 | –
